Reference: ChEMBL document CHEMBL5584237, “Design, synthesis, biological evaluation, and in silico studies of novel pyridopyridine derivatives as anticancer candidates targeting FMS kinase” (Eur J Med Chem, 2024)
Active and inactive are the calls of the source. No cut-off for these calls is given here.

Assays:
[1] = Selectivity index, ratio of IC50 for human WI-38 cells to IC50 for human CAKI-1 cells
[2] = Selectivity index, ratio of IC50 for human HS27 cells to IC50 for human MCF7 cells
[3] = Selectivity index, ratio of IC50 for human HS27 cells to IC50 for human Hs-578T cells
[4] = test system: SF-295; experiment: Antiproliferative activity against human SF-295 cells assessed as cell growth inhibition; type: functional
[5] = Selectivity index, ratio of IC50 for human WI-38 cells to IC50 for human MDA-MB-468 cells; type: toxicity; details: WI-38 cells and MDA-MB-468 cells, read-out: Ratio IC50
[6] = Selectivity index, ratio of IC50 for human WI-38 cells to IC50 for human SF-295 cells
[7] = test system: PC-3; experiment: Antiproliferative activity against human PC-3 cells assessed as cell growth inhibition; type: functional
[8] = Selectivity index, ratio of IC50 for human HS27 cells to IC50 for human MDA-MB-435 cells
[9] = Selectivity index, ratio of IC50 for human HS27 cells to IC50 for human NCI-H460 cells
[10] = test system: Hep 3B2; experiment: Cell cycle arrest in human Hep3B cells assessed as downregulation of cyclin D1 expression at 3.38 uM measured after 48 hrs by Western blot analysis; type: functional, cell-based
[11] = test system: 786-0; experiment: Antiproliferative activity against human 786-0 cells assessed as cell growth inhibition; type: functional
[12] = test system: M14; experiment: Antiproliferative activity against human M14 cells assessed as cell growth inhibition; type: functional
[13] = test system: Hep 3B2; experiment: Induction of apoptosis in human Hep3B cells assessed as increase in cleaved PARP expression measured after 48 hrs by Western blot analysis; type: functional, cell-based
[14] = Selectivity index, ratio of IC50 for human HS27 cells to IC50 for human OVCAR-3 cells
[15] = Selectivity index, ratio of IC50 for human HS27 cells to IC50 for human CCRF-CEM cells
[16] = test system: Malme-3M; experiment: Antiproliferative activity against human Malme-3M cells assessed as cell growth inhibition; type: functional
[17] = test system: OVCAR-3; experiment: Antiproliferative activity against human OVCAR-3 cells assessed as cell growth inhibition; type: functional
[18] = Selectivity index, ratio of IC50 for human WI-38 cells to IC50 for human OVCAR-4 cells
[19] = Selectivity index, ratio of IC50 for human WI-38 cells to IC50 for human HT-29 cells; type: toxicity; details: WI-38 cells and HT-29 cells, read-out: Ratio IC50
[20] = test system: Hep 3B2; experiment: Induction of apoptosis in human Hep3B cells assessed as increase in cleaved PARP expression at 3.38 uM measured after 48 hrs by Western blot analysis relative to control; type: functional
[21] = Selectivity index, ratio of IC50 for human WI-38 cells to IC50 for human OVCAR-3 cells
[22] = in vitro; details: human, WI-38 cells and A549 cells
Description: Selectivity index, ratio of IC50 for human WI-38 cells to IC50 for human A549 cells

[23] = Selectivity index, ratio of IC50 for human WI-38 cells to IC50 for human RXF 393 cells
[24] = test system: CAKI-1; experiment: Antiproliferative activity against human CAKI-1 cells assessed as cell growth inhibition; type: functional
[25] = Selectivity index, ratio of IC50 for human HS27 cells to IC50 for human A549 cells
[26] = Cytotoxicity against human WI-38 cells assessed as reduction in cell growth measured after 48 hrs by MTT assay; type: toxicity, cell-based
[27] = test system: RXF 393; experiment: Antiproliferative activity against human RXF 393 cells assessed as cell growth inhibition; type: functional
[28] = Selectivity index, ratio of IC50 for human HS27 cells to IC50 for human MOLT-4 cells
[29] = Selectivity index, ratio of IC50 for human HS27 cells to IC50 for human SK-MEL-28 cells
[30] = Selectivity index, ratio of IC50 for human WI-38 cells to IC50 for human K562 cells; type: toxicity; details: WI-38 cells and K562 cells, read-out: Ratio IC50
[31] = test system: HCT-15; experiment: Antiproliferative activity against human HCT-15 cells assessed as cell growth inhibition; type: functional
[32] = Selectivity index, ratio of IC50 for human WI-38 cells to IC50 for human Hs-578T cells
[33] = test system: HT-29; experiment: Antiproliferative activity against human HT-29 cells assessed as cell growth inhibition; type: functional
[34] = test system: SK-MEL-28; experiment: Antiproliferative activity against human SK-MEL-28 cells assessed as cell growth inhibition; type: functional
[35] = test system: Hep 3B2; experiment: Cell cycle arrest in human Hep3B cells assessed as upregulation of cyclin B1 expression at 0.5 x IC50 to IC50 measured after 48 hrs by Western blot analysis; type: functional, cell-based
[36] = Selectivity index, ratio of IC50 for human WI-38 cells to IC50 for human COLO 205 cells
[37] = Selectivity index, ratio of IC50 for human WI-38 cells to IC50 for human DU-145 cells
[38] = test system: SN12C; experiment: Antiproliferative activity against human SN12C cells assessed as cell growth inhibition; type: functional
[39] = Selectivity index, ratio of IC50 for human HS27 cells to IC50 for human HCT-15 cells
[40] = Selectivity index, ratio of IC50 for human WI-38 cells to IC50 for human SNB-75 cells
[41] = Selectivity index, ratio of IC50 for human WI-38 cells to IC50 for human HCT-15 cells
[42] = Selectivity index, ratio of IC50 for human WI-38 cells to IC50 for human SR cells; type: toxicity; details: WI-38 cells and SR cells, read-out: Ratio IC50
[43] = Selectivity index, ratio of IC50 for human HS27 cells to IC50 for human SF-539 cells
[44] = Selectivity index, ratio of IC50 for human WI-38 cells to IC50 for human PC-3 cells; type: toxicity; details: WI-38 cells and PC-3 cells, read-out: Ratio IC50
[45] = test system: OVCAR-4; experiment: Antiproliferative activity against human OVCAR-4 cells assessed as cell growth inhibition; type: functional
[46] = Selectivity index, ratio of IC50 for human HS27 cells to IC50 for human SR cells
[47] = Selectivity index, ratio of IC50 for human WI-38 cells to IC50 for human HCT-116 cells; type: toxicity; details: WI-38 cells and HCT-116 cells, read-out: Ratio IC50
[48] = Selectivity index, ratio of IC50 for human WI-38 cells to IC50 for human SN12C cells

CCN1CCN(c2ccc(NC(=O)Nc3ccc(-c4cc(C(=O)NC(C)C)c5ncccc5n4)cc3)cc2C(F)(F)F)CC1
Ratio IC50 [1]: 10.52
Ratio IC50 [2]: 5.22
Ratio IC50 [3]: 5.22
GI50 [4]: 580 nM
TGI [4]: 1140 nM
selectivity ratio [5]: 10.1
Ratio IC50 [6]: 8.71
GI50 [7]: 760 nM
TGI [7]: 2100 nM
Ratio IC50 [8]: 4.47
Ratio IC50 [9]: 3.32
Activity [10]: Active
GI50 [11]: 500 nM
TGI [11]: 1030 nM
GI50 [12]: 720 nM
TGI [12]: 1900 nM
Activity [13]: Dose-Dependent Effect
Ratio IC50 [14]: 3.05
Ratio IC50 [15]: 8
GI50 [16]: 580 nM
TGI [16]: 1050 nM
GI50 [17]: 640 nM
TGI [17]: 1360 nM
Ratio IC50 [18]: 5.89
selectivity ratio [19]: 18.8
fold change (FC) [20]: 27
Ratio IC50 [21]: 5.89
selectivity ratio [22]: 6.4
Ratio IC50 [23]: 10.52
GI50 [24]: 800 nM
TGI [24]: 2080 nM
Ratio IC50 [25]: 3.32
IC50 at 48 h [26]: 16200 nM
GI50 [27]: 650 nM
TGI [27]: 1730 nM
Ratio IC50 [28]: 8
Ratio IC50 [29]: 4.47
selectivity ratio [30]: 15.4
GI50 [31]: 670 nM
TGI [31]: 1350 nM
Ratio IC50 [32]: 10.06
GI50 [33]: 670 nM
TGI [33]: 1320 nM
GI50 [34]: 750 nM
TGI [34]: 1850 nM
Activity [35]: inactive
Ratio IC50 [36]: 18.84
Ratio IC50 [37]: 21.6
GI50 [38]: 670 nM
TGI [38]: 1380 nM
Ratio IC50 [39]: 9.77
Ratio IC50 [40]: 8.71
Ratio IC50 [41]: 18.84
selectivity ratio [42]: 15.4
Ratio IC50 [43]: 4.52
selectivity ratio [44]: 21.6
GI50 [45]: 880 nM
TGI [45]: 2450 nM
Ratio IC50 [46]: 8
selectivity ratio [47]: 18.8
Ratio IC50 [48]: 10.52
